Reference: US20220226425A1, “METHOD OF TREATING MELANOCORTIN-4 RECEPTOR PATHWAY-ASSOCIATED DISORDERS” (RHYTHM PHARMACEUTICALS, INC., priority 2015, published 2022)
Where a SMILES comes first, the peptide text is derived from it. Bridges are numbered along the chain shown (N, C = ends). [ ]: non-standard residue; d: D form. Pen = CC(C)(S)[C@H](N)C(=O)O; hCys = N[C@@H](CCS)C(=O)O

How the values were obtained:
Assay in all cases: cAMP accumulation via β-galactosidase (β-Gal) reporter system (cAMP Hunter GPCR assay)
Format in all cases: cell-based
MC-1R = MC-1R (Homo sapiens, UniProt Q01726); details: ratio of EC-50 values, MC-1R versus MC-4R
Text: (§1) cAMP Accumulation Measurement via a β-Galactosidase (β-Gal) Reporter System
(§2) A chemiluminescence readout system that uses an enzyme fragment complementation (EFC) system with β-galactosidase (β-Gal) as the functional reporter system was used. This assay system for various melanocortin receptor systems is commercially available (cAMP Hunter GPCR assay system, Discoverx Corp, Fremont, Calif.). This assay utilizes the β-Gal enzyme that is split into two complementary portions; EA for Enzyme Acceptor and ED for Enzyme Donor. In the assay, the ED portion fused to cAMP is made to compete with cAMP generated by cells for binding to a cAMP-specific antibody. The EA is then added to form active β-Gal with any unbound ED-cAMP. […] Briefly, 10000 cells per well are plated overnight and each well (cells incubated with 10 μl assay buffer) is then incubated with 4X serial concentration of the test compound in the cell assay buffer (5 μL) and cAMP antibody reagent (5 μL) for 30 min at 37° C. The cell lysis buffer (20 μL) containing ED-cAMP coupled enzyme fragment and the reporter substrate (Emerald II-Galacton Star, 5:1) is then added and incubated for 60 min at room temperature. Next, 20 μL of EA β-Gal fragment reagent is added. After further incubation for 120 min at room temperature, the chemiluminescence is measured by a plate reader (Envision).

MC-3R = MC-3R (Homo sapiens, UniProt P41968); details: for EC50: cAMP agonist readout, MC-3R, read-out: EC-50 (nM) MC-3R; for Selectivity Ratios MC4R/MC3R: ratio of EC-50 values, MC-3R versus MC-4R
Text: as §1, §2

MC-5R = MC-5R (Homo sapiens, UniProt P33032); details: for Selectivity Ratios MC4R/MC5R: ratio of EC-50 values, MC-5R versus MC-4R
Text: as §1
A chemiluminescence readout system that uses an enzyme fragment complementation (EFC) system with β-galactosidase (β-Gal) as the functional reporter system was used. This assay system for various melanocortin receptor systems is commercially available (cAMP Hunter GPCR assay system, Discoverx Corp, Fremont, Calif.). This assay utilizes the β-Gal enzyme that is split into two complementary portions; EA for Enzyme Acceptor and ED for Enzyme Donor. In the assay, the ED portion fused to cAMP is made to compete with cAMP generated by cells for binding to a cAMP-specific antibody. The EA is then added to form active β-Gal with any unbound ED-cAMP. This active enzyme then converts a chemiluminescent substrate to generate an output signal that is recorded on a standard microplate reader. Briefly, 10000 cells per well are plated overnight and each well (cells incubated with 10 μl assay buffer) is then incubated with 4X serial concentration of the test compound in the cell assay buffer (5 μL) and cAMP antibody reagent (5 μL) for 30 min at 37° C. The cell lysis buffer (20 μL) containing ED-cAMP coupled enzyme fragment and the reporter substrate (Emerald II-Galacton Star, 5:1) is then added and incubated for 60 min at room temperature. Next, 20 μL of EA β-Gal fragment reagent is added. After further incubation for 120 min at room temperature, the chemiluminescence is measured by a plate reader (Envision).

MC-1R, sequence (Q01726 whole entry): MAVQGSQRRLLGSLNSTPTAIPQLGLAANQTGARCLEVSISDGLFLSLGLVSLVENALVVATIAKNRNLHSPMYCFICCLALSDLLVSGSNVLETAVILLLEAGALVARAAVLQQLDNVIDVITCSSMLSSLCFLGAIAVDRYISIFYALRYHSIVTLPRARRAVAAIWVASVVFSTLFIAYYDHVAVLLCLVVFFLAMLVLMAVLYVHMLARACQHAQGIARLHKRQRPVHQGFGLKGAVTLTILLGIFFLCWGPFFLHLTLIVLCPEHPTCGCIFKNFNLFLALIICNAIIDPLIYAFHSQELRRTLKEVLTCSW
MC-5R, sequence (P33032 whole entry): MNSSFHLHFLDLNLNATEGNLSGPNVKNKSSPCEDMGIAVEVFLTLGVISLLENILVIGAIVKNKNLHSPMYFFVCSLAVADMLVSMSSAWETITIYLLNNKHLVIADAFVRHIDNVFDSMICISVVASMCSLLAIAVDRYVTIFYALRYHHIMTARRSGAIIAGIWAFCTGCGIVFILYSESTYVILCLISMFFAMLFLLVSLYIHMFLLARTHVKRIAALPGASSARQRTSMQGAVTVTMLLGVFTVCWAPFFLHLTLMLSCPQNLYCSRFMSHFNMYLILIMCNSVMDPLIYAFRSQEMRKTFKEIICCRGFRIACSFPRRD
MC-3R, sequence (P41968 whole entry): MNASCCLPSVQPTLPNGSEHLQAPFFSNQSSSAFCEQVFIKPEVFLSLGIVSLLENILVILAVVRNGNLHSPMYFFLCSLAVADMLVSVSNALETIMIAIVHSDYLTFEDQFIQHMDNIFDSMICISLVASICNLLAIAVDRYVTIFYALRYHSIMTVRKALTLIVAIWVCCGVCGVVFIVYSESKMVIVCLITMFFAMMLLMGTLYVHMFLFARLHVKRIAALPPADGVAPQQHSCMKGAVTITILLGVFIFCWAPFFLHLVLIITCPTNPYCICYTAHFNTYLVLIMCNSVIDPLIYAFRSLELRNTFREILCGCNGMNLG

Row | SMILES | Selectivity Ratios MC4R/MC1R (MC-1R) | EC50 (MC-3R) [nM] | Selectivity Ratios MC4R/MC3R (MC-3R) | Selectivity Ratios MC4R/MC5R (MC-5R) | EC50 (MC-5R; cAMP agonist readout, MC-5R, read-out: EC-50 (nM) MC-5R) [nM]
1 | CC(=O)N[C@@H](CCCNC(=N)N)C(=O)N[C@H]1CCSSC(C)(C)[C@@H](C(N)=O)NC(=O)[C@H](Cc2c[nH]c3ccccc23)NC(=O)[C@H](CCCNC(=N)N)NC(=O)[C@@H](Cc2ccccc2)NC(=O)[C@H](CC(N)=O)NC1=O [Compound 001554C, Ac-Arg-(hCys-Asn-D-Phe-Arg-Trp-Pen)-NH2] (Ac-R[hCys]N[dF]RW[Pen]-NH2; disulfide 2-7) | 146.75 | > 3000 | >1872.97 | 459.17 | 
2 | CC(=O)N[C@@H](CCCNC(=N)N)C(=O)N[C@H]1CCSSC(C)(C)[C@@H](C(N)=O)NC(=O)[C@H](Cc2c[nH]c3ccccc23)NC(=O)[C@H](CCCNC(=N)N)NC(=O)[C@@H](Cc2ccccc2)NC(=O)[C@H](CCC(N)=O)NC1=O [Compound 001555C, Ac-Arg-(hCys-Gln-D-Phe-Arg-Trp-Pen)-NH2] (Ac-R[hCys]Q[dF]RW[Pen]-NH2; disulfide 2-7) | 244.35 |  | 2.68 | 639.81 | 
3 | CC(=O)N[C@@H](CCCNC(=N)N)C(=O)N[C@H]1CCSSC(C)(C)[C@@H](C(N)=O)NC(=O)[C@H](Cc2c[nH]c3ccccc23)NC(=O)[C@H](CCCNC(=N)N)NC(=O)[C@@H](Cc2ccccc2)NC(=O)[C@H](CO)NC1=O [Compound 001556C, Ac-Arg-(hCys-Ser-D-Phe-Arg-Trp-Pen)-NH2] (Ac-R[hCys]S[dF]RW[Pen]-NH2; disulfide 2-7) | 123.06 | > 3000 | >1615.55 | 916.48 | 
4 | CC(=O)N[C@@H](CCCNC(=N)N)C(=O)N[C@H]1CCSSC(C)(C)[C@@H](C(N)=O)NC(=O)[C@H](Cc2c[nH]c3ccccc23)NC(=O)[C@H](CCCNC(=N)N)NC(=O)[C@@H](Cc2ccccc2)NC(=O)[C@H]([C@@H](C)O)NC1=O [Compound 001574C, Ac-Arg-(hCys-Thr-D-Phe-Arg-Trp-Pen)-NH2] (Ac-R[hCys]T[dF]RW[Pen]-NH2; disulfide 2-7) | 465.77 | > 3000 | >2705.95 | 1846.64 | 
5 | CC(=O)N[C@@H](CCCNC(=N)N)C(=O)N[C@H]1CCC(=O)NC[C@@H](C(N)=O)NC(=O)[C@H](Cc2c[nH]c3ccccc23)NC(=O)[C@H](CCCNC(=N)N)NC(=O)[C@@H](Cc2ccccc2)NC(=O)[C@H](CCC(N)=O)NC1=O [Compound 001576C, Ac-Arg-(Glu-Gln-D-Phe-Arg-Trp-Dpr)-NH2] | 35.57 |  | 1.75 | 101.41 | 
6 | CC(=O)N[C@@H](CCCNC(=N)N)C(=O)N[C@H]1CSSC[C@@H](C(N)=O)NC(=O)[C@H](Cc2c[nH]c3ccccc23)NC(=O)[C@H](CCCNC(=N)N)NC(=O)[C@@H](Cc2ccccc2)NC(=O)[C@H](Cc2c[nH]cn2)NC(=O)[C@@H](C)NC1=O [RM-493, reference compound] |  |  |  |  | 1680
